Inhibition data for 24 compounds are collected here from patent US20230303569A1, “HETEROCYCLIC COMPOUNDS AS THERAPEUTIC AGENTS” (Arisan Therapeutics Inc., priority 2021, published 2023).

Like-named read-outs stand apart in the source and are kept apart here.

The target in the assay is T1, human Nav1.6 (Homo sapiens, UniProt Q9UQD0).
T1 construct: host or cells: HEK293
In words: Two pulse assay protocol, Nav1.6. It counts as cell-based. The note with it: peak current. The procedure:
In vitro Na+ Current Inhibition Assays were performed by Eurofins Discovery (St Charles, MO). All compound functional activity determinations were determined through electrophysiological analyses of Na+ currents in HEK293 cells expressing a stably transfected Na+ channel (human Nav1.1, 1.2, 1.3, 1.5, 1.6, 1.7, or 1.8). After harvesting with Accutase cells are maintained in serum free medium at room temperature prior to electrophysiological recording utilizing the QPatch HT automated whole-cell patch-clamp platform (Sophion Bioscience, Woburn MA). Stock solution aliquots of the test compound are prepared in DMSO at 300× the final assay concentrations, and stored at −20° C. until the day of assay. On the day of the assay, an aliquot of the stock solution is thawed and diluted into external solution (137 mM NaCl, 4 mM KCl, 1 mM MgCl2, 1.8 mM CaCl2, 10 mM HEPES, 10 mM Glucose (pH 7.3, titrated with 10M NaOH) to make final test concentrations. A final concentration of 0.33% DMSO is maintained for each concentration of the assay compounds. Internal solution for recordings of Na+ consist consists of 100 mM CsF, 45 mM CsCl, 5 mM NaCl, 10 mM HEPES, 5 mM EGTA (pH 7.3, titrated with 1M CsOH).
Two pulse assay protocol for human Nav1.1, 1.2, 1.3, 1.5, 1.6, 1.7, and 1.8 channels. Mammalian cultured cells expressing the indicated human Nav1.1, 1.2, 1.3, 1.5, 1.6, 1.7 or 1.8 channels were assayed using the The QPatch HT (Sophion Bioscience, Woburn MA) automated system with an intracellular solution (mM) of 100 CsF, 45 CsCl, 5 NaCl, 10 HEPES, 5 EGTA (pH 7.3, titrated with 1M CsOH) and extracellular solution (mM) of 137 NaCl, 4 KCl, 1 MgCl2, 1.8 CaCl2, 10 HEPES, 10 Glucose (pH 7.3, titrated with 10M NaOH). Onset and steady state block of the sodium channel was measured using a pulse pattern, repeated every 20 seconds (s) from a holding potential of −120 mV for 100 ms, and then pulsed to 0 mV for 500 ms to inactivate the Na channels and facilitate inactivated state-dependent binding of the test compounds. The cell membranes were then stepped back to −120 mV for 10 ms to recover from inactivation into resting or closed state (channels with test compound bound to them will not recover from inactivation and will not open) before stepping to 0 mV for 50 ms (pulse 2) to measure Na channels that are available to open. Peak current was measured during the step to 0 mV at pulse 1 and 2 to measure tonic and state-dependent inhibition. Compound activities were assessed by dividing post current amplitude (at the end of each five (5) minute compound application) by the vehicle control amplitude and the mean calculated for each compound concentration. Tetracaine was used as a positive control and was tested concurrently with the test compounds. Current amplitudes in excess of 200 pA at the control stage were analyzed. The amplitude of the current was calculated by measuring the difference between the peak inward current on stepping to 0 mV (i.e. peak of the current) and remaining current at the end of the step. The current was assessed in vehicle control conditions and then at the end of each five (5) minute compound application.

Where [1] appears, read: pulse 1 (tonic), read-out: percent inhibition hNav1.6, Pulse 1 (5 uM).
Setting [2] is: pulse 2 (state-dependent), read-out: percent inhibition hNav1.6, Pulse 2 (5 uM).

T1 sequence (Q9UQD0 whole entry): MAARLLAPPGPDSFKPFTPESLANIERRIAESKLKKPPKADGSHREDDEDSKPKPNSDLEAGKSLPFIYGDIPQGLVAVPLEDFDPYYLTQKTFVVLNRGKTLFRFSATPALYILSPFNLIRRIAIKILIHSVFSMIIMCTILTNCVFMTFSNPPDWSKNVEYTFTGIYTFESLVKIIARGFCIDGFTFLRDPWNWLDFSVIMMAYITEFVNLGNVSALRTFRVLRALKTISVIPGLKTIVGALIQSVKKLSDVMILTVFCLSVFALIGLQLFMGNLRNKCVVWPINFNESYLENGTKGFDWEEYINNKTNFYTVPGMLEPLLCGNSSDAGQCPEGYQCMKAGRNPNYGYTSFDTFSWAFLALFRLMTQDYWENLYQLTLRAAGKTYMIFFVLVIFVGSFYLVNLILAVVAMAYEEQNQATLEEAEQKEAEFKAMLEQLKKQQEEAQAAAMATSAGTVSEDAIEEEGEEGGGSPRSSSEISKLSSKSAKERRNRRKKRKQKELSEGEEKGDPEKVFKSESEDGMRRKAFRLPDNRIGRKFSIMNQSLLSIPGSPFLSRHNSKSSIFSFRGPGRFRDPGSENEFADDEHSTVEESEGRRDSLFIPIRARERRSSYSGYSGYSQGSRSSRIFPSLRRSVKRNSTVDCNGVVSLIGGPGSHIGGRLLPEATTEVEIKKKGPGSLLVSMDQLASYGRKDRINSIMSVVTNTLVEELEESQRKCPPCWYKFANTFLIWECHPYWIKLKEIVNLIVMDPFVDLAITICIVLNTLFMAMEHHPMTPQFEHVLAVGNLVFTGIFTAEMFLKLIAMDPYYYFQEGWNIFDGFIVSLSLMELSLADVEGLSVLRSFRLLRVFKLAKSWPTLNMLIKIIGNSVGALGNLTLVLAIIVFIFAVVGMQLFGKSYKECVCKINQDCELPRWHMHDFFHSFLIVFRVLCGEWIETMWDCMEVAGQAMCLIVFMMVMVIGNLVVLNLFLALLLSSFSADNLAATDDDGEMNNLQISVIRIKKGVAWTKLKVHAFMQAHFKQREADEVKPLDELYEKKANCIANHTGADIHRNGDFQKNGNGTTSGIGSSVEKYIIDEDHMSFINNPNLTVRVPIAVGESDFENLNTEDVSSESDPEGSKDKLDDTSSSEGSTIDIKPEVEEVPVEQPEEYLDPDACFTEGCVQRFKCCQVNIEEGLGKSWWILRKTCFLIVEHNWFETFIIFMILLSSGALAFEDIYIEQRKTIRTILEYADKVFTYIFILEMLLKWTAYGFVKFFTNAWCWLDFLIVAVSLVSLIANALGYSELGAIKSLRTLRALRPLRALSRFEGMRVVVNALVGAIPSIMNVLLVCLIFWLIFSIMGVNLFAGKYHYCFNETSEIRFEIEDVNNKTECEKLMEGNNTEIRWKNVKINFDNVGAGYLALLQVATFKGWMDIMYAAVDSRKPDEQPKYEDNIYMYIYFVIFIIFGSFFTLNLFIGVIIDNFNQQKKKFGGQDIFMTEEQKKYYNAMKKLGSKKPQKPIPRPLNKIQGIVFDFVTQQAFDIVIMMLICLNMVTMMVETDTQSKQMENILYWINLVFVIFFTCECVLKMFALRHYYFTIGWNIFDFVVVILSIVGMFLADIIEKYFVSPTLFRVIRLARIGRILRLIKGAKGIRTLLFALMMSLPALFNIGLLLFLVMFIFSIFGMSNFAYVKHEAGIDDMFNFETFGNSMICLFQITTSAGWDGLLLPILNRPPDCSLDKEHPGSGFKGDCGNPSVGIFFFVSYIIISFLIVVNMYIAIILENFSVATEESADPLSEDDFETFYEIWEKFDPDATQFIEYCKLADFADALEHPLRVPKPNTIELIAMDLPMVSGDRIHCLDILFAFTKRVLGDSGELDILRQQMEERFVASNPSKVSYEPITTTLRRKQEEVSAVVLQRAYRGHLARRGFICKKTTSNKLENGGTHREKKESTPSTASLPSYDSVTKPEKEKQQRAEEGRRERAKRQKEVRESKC

As usually defined, the inhibition is the change of the read-out against control, counted positive when it falls. For `CC(C)Oc1ccc(-c2ccc3ncc(-c4cncc(OC(C)C)c4)n3c2)cc1` [Example C77, 6-(4-isopropoxyphenyl)-3-(5-isopropoxypyridin-3-yl)imidazo[1,2-a]pyridine], the inhibition at 5 µM was under 50% under setting [1] and 50 to 90% under setting [2].
On to `Cc1cc2ncc(-c3ccc(OC(C)(C)C)cc3)n2cc1-c1ccc(OC(C)C)c(F)c1` [Example C79, 3-(4-(tert-butoxy)phenyl)-6-(3-fluoro-4-isopropoxyphenyl)-7-methylimidazo[1,2-a]pyridine], for which the inhibition at 5 µM reads like this: under setting [1], under 50%; under setting [2], 50 to 90%.
`Cc1cc2ncc(-c3ccc(OC(C)C)cc3)n2cc1-c1ccc(OC(C)C)cc1` [Example C48, 7-methyl-3,6-bis[4-(propan-2-yloxy)phenyl]imidazo[1,2-a]pyridine]: the inhibition at 5 µM was under 50% under setting [1] and 50 to 90% under setting [2].
The like results for `CC(C)(C)Oc1ccc(-c2cnc3ccc(-c4cnc(OCC(F)(F)F)c(F)c4)cn23)cc1` [Example C86, 3-(4-(tert-butoxy)phenyl)-6-(5-fluoro-6-(2,2,2-trifluoroethoxy)pyridin-3-yl)imidazo[1,2-a]pyridine] were, in that order, under 50% and over 90%.
The like results for `CC(C)Oc1ccc(-c2ccc3ncc(-c4ccc(OC(C)C)cc4)n3n2)cc1` [Example D10, 3,6-bis[4-(propan-2-yloxy)phenyl]imidazo[1,2-b]pyridazine] were, in that order, under 50% and over 90%.
As to `CC(C)Oc1ccc(-c2ccc3ncc(-c4ccnc(OC(C)C)c4)n3c2)cc1` [Example C76, 6-(4-isopropoxyphenyl)-3-(2-isopropoxypyridin-4-yl)imidazo[1,2-a]pyridine], the inhibition at 5 µM under setting [1] was under 50% and the inhibition at 5 µM under setting [2] is over 90%.
On to `Cc1cc(-c2ccc(OC(C)C)cc2)cn2c(-c3ccc(OC(C)C)cc3)cnc12` [Example C50, 8-methyl-3,6-bis[4-(propan-2-yloxy)phenyl]imidazo[1,2-a]pyridine], for which the inhibition at 5 µM is under 50% under setting [1] and under 50% under setting [2].
Turning to `CC(C)Oc1ccc(-c2ccc3ncc(-c4ccc(OC(C)C)nc4F)n3c2)cc1` [Example C74, 3-(2-fluoro-6-isopropoxypyridin-3-yl)-6-(4-isopropoxyphenyl)imidazo[1,2-a]pyridine], the inhibition at 5 µM runs as follows: under setting [1], under 50%; under setting [2], 50 to 90%.
For the compound `CC(C)Oc1ccc(-c2cnc3ccc(-c4ccc(OC(C)(C)C)cc4)cn23)cc1` [Example C21, 6-[4-(tert-butoxy)phenyl]-3-[4-(propan-2-yloxy)phenyl]imidazo[1,2-a]pyridine], the inhibition at 5 µM is, setting by setting: under setting [1], under 50%; under setting [2], over 90%.
The like results for `Cc1cc2ncc(-c3ccc(OC(C)(C)C)nc3)n2cc1-c1ccc(OC(C)C)cc1` [Example C84, 3-(6-(tert-butoxy)pyridin-3-yl)-6-(4-isopropoxyphenyl)-7-methylimidazo[1,2-a]pyridine] were, in that order, under 50% and 50 to 90%.
The like results for `Cc1cc2ncc(-c3ccc(OC(C)(C)C)nc3)n2cc1-c1ccc(OC(C)C)c(F)c1` [Example C85, 3-(6-(tert-butoxy)pyridin-3-yl)-6-(3-fluoro-4-isopropoxyphenyl)-7-methylimidazo[1,2-a]pyridine] were, in that order, under 50% and 50 to 90%.
`CC(C)Oc1ccc(-c2ccc3ncc(-c4ccc(OC(C)(C)C)cc4)n3c2)cc1F` [Example C81, 3-(4-(tert-butoxy)phenyl)-6-(3-fluoro-4-isopropoxyphenyl)imidazo[1,2-a] pyridine]: the inhibition at 5 µM under setting [1] was under 50% and the inhibition at 5 µM under setting [2] was over 90%.
The like results for `CC(C)Oc1ccc(-c2cnc3ccc(-c4ccc(OC(C)C)cc4F)cn23)cc1` [Example C23, 6-[2-fluoro-4-(propan-2-yloxy)phenyl]-3-[4-(propan-2-yloxy)phenyl]imidazo[1,2-a]pyridine] were, in that order, under 50% and under 50%.
The like results for `CC(C)Oc1ccc(-c2ccc3ncc(-c4ccc(Oc5ccccc5)nc4)n3c2)cc1` [Example C88, 6-(4-isopropoxyphenyl)-3-(6-phenoxypyridin-3-yl)imidazo[1,2-a]pyridine] were, in that order, under 50% and over 90%.
In the case of `Cc1c(-c2ccc(OC(C)C)cc2)ccc2ncc(-c3ccc(OC(C)C)cc3)n12` [Example C51, 5-methyl-3,6-bis[4-(propan-2-yloxy)phenyl]imidazo[1,2-a]pyridine], the inhibition at 5 µM reads like this: under setting [1], under 50%; under setting [2], under 50%.
As for `CC(C)Oc1ccc(-c2ccc3ncc(-c4ccc(OC(C)(C)C)cc4)n3c2)cn1` [Example C83, 3-(4-(tert-butoxy)phenyl)-6-(6-isopropoxypyridin-3-yl)imidazo[1,2-a]pyridine], the inhibition at 5 µM reads like this: under setting [1], under 50%; under setting [2], 50 to 90%.
On to `Cc1cc(OC(C)C)ccc1-c1ccc2ncc(-c3ccc(OC(C)C)cc3)n2c1` [Example C18, 6-[2-methyl-4-(propan-2-yloxy)phenyl]-3-[4-(propan-2-yloxy)phenyl]imidazo[1,2-a]pyridine], for which the inhibition at 5 µM runs as follows: under setting [1], under 50%; under setting [2], 50 to 90%.
For `CC(C)Oc1ccc(-c2ccc3ncc(-c4ccc(OC(C)C)cc4)n3c2)cc1` [Example C2, 3,6-bis[4-(propan-2-yloxy)phenyl]imidazo[1,2-a]pyridine] the same measures were under 50% and over 90%.
Take `Cc1cc2ncc(-c3ccc(OC(C)(C)C)cc3)n2nc1-c1ccc(OC(C)C)cc1` [Example D23, 3-(4-(tert-butoxy)phenyl)-6-(4-isopropoxyphenyl)-7-methylimidazo[1,2-b]pyridazine]: the inhibition at 5 µM runs as follows: under setting [1], under 50%; under setting [2], 50 to 90%.
The like results for `CC(C)(C)Oc1ccc(-c2ccc3ncc(-c4ccc(OC(C)(C)C)cc4)n3c2)cc1` [Example C82, 3,6-bis(4-(tert-butoxy)phenyl)imidazo[1,2-a]pyridine] were, in that order, under 50% and over 90%.
`CC(C)Oc1ccc(-c2cn3c(-c4ccc(OC(C)(C)C)cc4)cnc3cc2Cl)cc1` [Example C91, 3-(4-(tert-butoxy)phenyl)-7-chloro-6-(4-isopropoxyphenyl)imidazo[1,2-a]pyridine]: the inhibition at 2.5 µM reads like this: (pulse 1 (tonic), read-out: percent inhibition hNav1.6, Pulse 1 (2.5 uM)) under 50%; (pulse 2 (state-dependent), read-out: percent inhibition hNav1.6, Pulse 2 (2.5 uM)) under 50%.
As to `CC(C)Oc1ccc(-c2ccc3ncc(-c4cnc(OC(C)C)nc4)n3c2)cc1` [Example C75, 6-(4-isopropoxyphenyl)-3-(2-isopropoxypyrimidin-5-yl)imidazo[1,2-a]pyridine], the inhibition at 5 µM is, setting by setting: under setting [1], under 50%; under setting [2], 50 to 90%.
The like results for `Cc1cc2ncc(-c3ccc(OC(C)(C)C)cc3)n2cc1-c1ccc(OC(C)C)nc1` [Example C78, 3-(4-(tert-butoxy)phenyl)-6-(6-isopropoxypyridin-3-yl)-7-methylimidazo[1,2-a]pyridine] were, in that order, under 50% and over 90%.
For `Cc1cc2ncc(-c3ccc(OC(C)C)cc3)n2cc1-c1ccc(OC(C)C)c(F)c1` [Example C80, 6-(3-fluoro-4-isopropoxyphenyl)-3-(4-isopropoxyphenyl)-7-methylimidazo[1,2-a]pyridine] the same measures were under 50% and under 50%.
